One block for each sequence: values may come before it. Where no end group is shown, it is not given here.
Legend:
[1] = test system: Cdlc2 (Dynein light chain 2); experiment: Fluorescence polarization binding of FITC-labelled peptides to Cdlc2; set-up: species or system Drosophila melanogaster; conditions: FITC-labelled peptide 10 nM, PBS pH 7.4, protein concentrations 5–400 μM
abl-SH3 domain = biological target: T1, abl-SH3 domain (Homo sapiens, UniProt P00519); experiment: Fluorescence polarization preliminary test with abl-SH3 binding peptide; conditions: FITC N-terminal labeled peptide
T1 construct: preparation of human abl-SH3 domain [9]; made in house
T1 sequence (P00519 61-121 limits assumed): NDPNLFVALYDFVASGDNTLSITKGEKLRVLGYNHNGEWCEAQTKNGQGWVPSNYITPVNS

Translin = biological target: T2, Translin (Drosophila melanogaster, UniProt Q7JVK6); experiment: Fluorescence polarization binding of FITC-labelled peptides to Translin; conditions: FITC N-terminal labeled peptide 10 nM in PBS pH 7.4, 5 min at room temperature, non-linear regression on three independent experiments
T2 sequence (Q7JVK6 1-235): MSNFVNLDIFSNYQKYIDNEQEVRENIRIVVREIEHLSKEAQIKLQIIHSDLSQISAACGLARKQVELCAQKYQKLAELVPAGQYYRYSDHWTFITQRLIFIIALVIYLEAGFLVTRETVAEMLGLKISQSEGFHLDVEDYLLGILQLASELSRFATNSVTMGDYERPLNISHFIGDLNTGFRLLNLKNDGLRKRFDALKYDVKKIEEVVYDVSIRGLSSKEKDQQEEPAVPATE

[2] = biological target: T3, protein phosphatase 1 (PP1) (Homo sapiens, UniProt P36873); experiment: Fluorescence polarization binding of FITC-labelled peptides to PP1; set-up: species or system H. sapiens
T3 construct: made in house; host or cells: E. coli BL21(DE3)
T3 sequence (P36873 whole entry): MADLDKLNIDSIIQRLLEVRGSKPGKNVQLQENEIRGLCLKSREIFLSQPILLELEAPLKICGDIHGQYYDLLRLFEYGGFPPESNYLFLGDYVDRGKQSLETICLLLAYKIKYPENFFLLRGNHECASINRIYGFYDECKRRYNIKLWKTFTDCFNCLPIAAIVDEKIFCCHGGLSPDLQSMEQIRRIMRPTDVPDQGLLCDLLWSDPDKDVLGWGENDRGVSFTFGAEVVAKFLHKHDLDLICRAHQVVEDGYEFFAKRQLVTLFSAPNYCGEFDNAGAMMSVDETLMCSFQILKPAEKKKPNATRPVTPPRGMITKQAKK

binding to Cdlc2 [1]: No binding
Sequence: ERAAAAENA [mutant of the Cdlc2 native peptide, motif positions mutated to Alanine]

Sequence: GAPTYSPPPPP [GAPTYSPPPPP]
Kd (abl-SH3 domain): 3 ± 0.4 µM

Kd (Translin): > 300 µM
Sequence: VSASPAAVAAPV (also: FITC label, position not given here) [Mutant]

binding to Cdlc2 [1]: No binding
Sequence: PFGTQTSPP [CG32130/215-223, additional peptide containing the canonical TQT motif, reference compound]

binding to Cdlc2 [1]: No binding
Sequence: ERAIQTENA [CG33213/104-112, Cdlc2 native peptide with the IQTE variant motif]

Kd ([2]; FITC N-terminal labeled peptide 10 nM in PBS pH 7.4, 5 min at room temperature, normalized to extrapolated Bmax, non-linear regression, three independent experiments): 65 ± 14 µM
specific binding to PP1 ([2]; result in words): retain some affinity
Sequence: VSASPAAVAAPV [Mutant]
